Measured values from ChEMBL document CHEMBL2440031, “Benzochalcones bearing pyrazoline moieties show anti-colorectal cancer activities and selective inhibitory effects on aurora kinases” (Bioorg Med Chem, 2013).
pIC50: −log10 of the molar value. Activity calls are given as the source filed them. The calls are words filed in the database; no cut-off is given here.

Assays:
HCT-116 [1] = assay: Cytotoxicity against human HCT116 cells after 7 days using crystal violet staining by clonogenic survival assay; format: functional, cell-based; conditions: HCT-116, 168 h
HCT-116 [2] = assay: Cytotoxicity against human HCT116 cells up to 40 uM by WST-8 assay; format: functional, cell-based; conditions: TDE = time-dependent effect
HCT-116 [3] = assay: Cell cycle arrest in human HCT116 cells assessed as accumulation at sub-G1 phase accumulation at 40 uM after 12 to 48 hrs using propidium iodide staining by flow cytometric analysis relative to total cells; format: functional
HCT-116 [4] = assay: Increase of CDK expression in human HCT116 cells at 40 uM by Western blot analysis; format: functional, cell-based; conditions: TDE = time-dependent effect
HCT-116 [5] = assay: Cytotoxicity against human HCT116 cells after 24 to 48 hrs by WST-8 assay; format: functional, cell-based
HCT-116 [6] = assay: Cell cycle arrest in human HCT116 cells assessed as decrease of S phase accumulation at 40 uM after 12 to 48 hrs using propidium iodide staining by flow cytometric analysis; format: functional, cell-based
HCT-116 [7] = assay: Effect on cyclin-A1 expression in human HCT116 cells at 40 uM after 12 to 48 hrs by Western blot analysis; format: functional, cell-based
HCT-116 [8] = assay: Increase of p21 expression in human HCT116 cells at 40 uM by Western blot analysis; format: functional, cell-based; conditions: TDE = time-dependent effect
HCT-116 [9] = assay: Cell cycle arrest in human HCT116 cells assessed as decrease of G2/M phase accumulation at 40 uM after 12 to 48 hrs using propidium iodide staining by flow cytometric analysis; format: functional, cell-based
HCT-116 [10] = assay: Increase of cyclin-D1 expression in human HCT116 cells at 40 uM after 24 to 48 hrs by Western blot analysis; format: functional, cell-based
HCT-116 [11] = assay: Increase of cyclin-D1 expression in human HCT116 cells at 40 uM after 12 hrs by Western blot analysis; format: functional, cell-based
HCT-116 [12] = assay: Cell cycle arrest in human HCT116 cells assessed as increase of G1 phase accumulation at 40 uM after 12 to 48 hrs using propidium iodide staining by flow cytometric analysis; format: functional, cell-based
HCT-116 [13] = assay: Decrease of cyclin-B1 expression in human HCT116 cells at 40 uM after 24 hrs by Western blot analysis; format: functional, cell-based

| SMILES | pIC50 (HCT-116 [1]) | further results |
| --- | --- | --- |
| COc1ccc(C2CC(c3c(O)ccc4ccccc34)=NN2c2ccc(Cl)cc2)cc1 (stereo not drawn) | 5.01 | – |
| COc1cccc(C2CC(c3ccc4ccccc4c3O)=NN2)c1 (stereo not drawn) | 4.68 | – |
| COc1ccccc1C1CC(c2ccc3ccccc3c2O)=NN1 (stereo not drawn) | 4.76 | – |
| COc1ccc(C2CC(c3ccc4ccccc4c3O)=NN2)cc1 (stereo not drawn) | 4.88 | – |
| COc1cc(OC)cc(C2CC(c3c(O)ccc4ccccc34)=NN2)c1 (stereo not drawn) | 5.24 | – |
| COc1cccc(C2CC(c3c(O)ccc4ccccc34)=NN2)c1OC (stereo not drawn) | 5.20 | – |
| COc1ccc(C2CC(c3ccc4ccccc4c3O)=NN2)c(OC)c1OC (stereo not drawn) | 4.95 | – |
| COc1cc(OC)cc(C2CC(c3ccc4ccccc4c3O)=NN2)c1 (stereo not drawn) | 5.33 | – |
| COc1ccc(C2CC(c3c(O)ccc4ccccc34)=NN2)cc1 (stereo not drawn) | 5.11 | – |
| COc1cc(OC)c(C2CC(c3ccc4ccccc4c3O)=NN2)cc1OC (stereo not drawn) | 5.05 | – |
| COc1cc(OC)c(C2CC(c3ccc4ccccc4c3O)=NN2)c(OC)c1 (stereo not drawn) | 4.49 | – |
| COc1ccc(C2CC(c3c(O)ccc4ccccc34)=NN2c2ccc(Cl)cc2)c(OC)c1 (stereo not drawn) | 5.27 | – |
| COc1ccc(C2CC(c3ccc4ccccc4c3O)=NN2)c(OC)c1 (stereo not drawn) | 5.06 | – |
| COc1ccc(C2CC(c3c(O)ccc4ccccc34)=NN2)c(OC)c1 (stereo not drawn) | 5.62 | Activity (HCT-116 [2]): tde; Activity (HCT-116 [3]): 21.3%; Activity (HCT-116 [4]): tde; Activity (HCT-116 [5]): Dose-dependent effect; Activity (HCT-116 [6]): Active; Activity (HCT-116 [7]): Active; Activity (HCT-116 [8]): tde; Activity (HCT-116 [9]): Active; Activity (HCT-116 [10]): inactive; Activity (HCT-116 [11]): Active; Activity (HCT-116 [12]): Active; Activity (HCT-116 [13]): Active |
| COc1cccc(C2CC(c3ccc4ccccc4c3O)=NN2)c1OC (stereo not drawn) | 4.82 | – |
| COc1cc(OC)c(C2CC(c3c(O)ccc4ccccc34)=NN2c2ccc(Cl)cc2)cc1OC (stereo not drawn) | 5.11 | – |
